± gives the standard deviation of the averaged measurements.
The sequences below were run on MCF7 (assay: HRG-induced Akt activation (dPAkt = log2 pAkt/Akt HRG-stimulated minus log2 pAkt/Akt basal) (log2 ratio difference); higher = stronger HRG-induced Akt(T308) phosphorylation). Conditions: miRNA mimic concentration 10 nM; time after transfection 72 h; heregulin 10 ng/ml; stimulation time 1 h.
Method in brief: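 MCF7 cells ([…], 96-well plates) carrying one of 879 miRNA mimics, transfected at 10 nM final with Lipofectamine RNAiMax in two biological replicates, were stimulated after 72 h with 10 ng/ml heregulin-beta1 for 1 h or left unstimulated. Phospho-Akt(T308) and total Akt in cells fixed with 4% PFA were read by In-Cell Western on an Odyssey and corrected for column-wise fixation decay to give log2(pAkt/Akt). Heregulin-induced Akt activation is the replicate mean of stimulated minus unstimulated ratios.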

Sequence	HRG-induced Akt activation (log2)
CGGGUCGGAGUUAGCUCAAGCGG	1.44 ± 0.098
UCAAAUGCUCAGACUCCUGUGGU	1.63 ± 0.19
UCUCGCUGGGGCCUCCA	1.22 ± 0.36
UGGUUGACCAUAGAACAUGCGC	1.2 ± 0.092
AAGUGCUUCCUUUUAGAGGGUU	0.817 ± 0.012
CCCCCACAACCGCGCUUGACUAGCU	1.4 ± 0.091
GAGGGUCUUGGGAGGGAUGUGAC	1.44 ± 0.081
CGUGUUCACAGCGGACCUUGAU	1.89 ± 0.39
UUAAUAUCGGACAACCAUUGU	1.72 ± 0.21
AACUGGCCCUCAAAGUCCCGCU	2.215 ± 0.013
AAAAGUAAUUGUGGUUUUUGCC	1.07 ± 0.085
CCACCACCGUGUCUGACACUU	1.84 ± 0.088
UUGAAAGGCUAUUUCUUGGUC	2.39 ± 0.036
AUUCUGCAUUUUUAGCAAGUUC	1.8 ± 0.078
UUCACAUUGUGCUACUGUCUGC	1.59 ± 0.03
CUGGGAGGUGGAUGUUUACUUC	0.961 ± 0.055
UGUAAACAUCCCCGACUGGAAG	0.646 ± 0.057
UCCUUCUGCUCCGUCCCCCAG	1.47 ± 0.042
UGGACUGCCCUGAUCUGGAGA	1.55 ± 0.66
AGUCAUUGGAGGGUUUGAGCAG	1.86 ± 0.057
GCCCCUGGGCCUAUCCUAGAA	1.25 ± 0.56
UCCCACCGCUGCCACCC	1.98 ± 0.17
GAUGAUGCUGCUGAUGCUG	1.07 ± 0.52
UUCACAGUGGCUAAGUUCUGC	1.73 ± 0.061

Sequence	HRG-induced Akt activation (log2)
AAAGACAUAGGAUAGAGUCACCUC	1.9 ± 0.072
GAGGGUUGGGUGGAGGCUCUCC	1.47 ± 0.36
UACUUGGAAAGGCAUCAGUUG	1.28 ± 0.25
UGUCUACUACUGGAGACACUGG	2.12 ± 0.15
UAAUCUCAGCUGGCAACUGUGA	1.38 ± 0.37
AUCCUUGCUAUCUGGGUGCUA	1.94 ± 0.15
UCAGGCUCAGUCCCCUCCCGAU	1.36 ± 0.046
UGACCGAUUUCUCCUGGUGUUC	2.09 ± 0.076
UACUGCAUCAGGAACUGAUUGGA	0.878 ± 0.64
AAAAGUAAUUGCGGUUUUUGCC	1.53 ± 0.17
GUGUUGAAACAAUCUCUACUG	1.53 ± 0.25
UCAGCUGGCCCUCAUUUC	1.12 ± 0.66
AAUCAUACAGGGACAUCCAGUU	1.86 ± 0.16
UGAAGGUCUACUGUGUGCCAGG	1.11 ± 0.052
UCAGAACAAAUGCCGGUUCCCAGA	1.23 ± 0.54
GAAAGCGCUUCCCUUUGCUGGA	1.63 ± 0.082
CAAUCACUAACUCCACUGCCAU	1.69 ± 0.37
UAUACAAGGGCAAGCUCUCUGU	1.05 ± 0.18
GUGAGGACUCGGGAGGUGG	1.19 ± 0.87
AAACAUUCGCGGUGCACUUCUU	1.84 ± 0.035
AGGCAGUGUAGUUAGCUGAUUGC	2.22 ± 0.041
UAUGCAUUGUAUUUUUAGGUCC	1.1 ± 0.81
CAGUGGUUUUACCCUAUGGUAG	1.91 ± 0.035
CCUCCUGCCCUCCUUGCUGU	2.4 ± 0.096

Sequence	HRG-induced Akt activation (log2)
AAAGUAGCUGUACCAUUUGC	1.44 ± 0.56
UCAGGCCAGGCACAGUGGCUCA	1.57 ± 0.41
AACUGUUUGCAGAGGAAACUGA	1.816 ± 0.014
CCUCUAGAUGGAAGCACUGUCU	1.41 ± 0.026
AGCAGCAUUGUACAGGGCUAUCA	1.35 ± 0.26
AAAGUGCUUCUCUUUGGUGGGU	0.92 ± 0.047
AUGCACCUGGGCAAGGAUUCUG	1.77 ± 0.18
UUAUAAUACAACCUGAUAAGUG	1.04 ± 0.33
UGAGAACUGAAUUCCAUAGGCU	2.34 ± 0.1
UCACUCCUCUCCUCCCGUCUU	1.4 ± 0.36
UGAUUGGUACGUCUGUGGGUAG	2.35 ± 0.031
CGCAGGGGCCGGGUGCUCACCG	1.59 ± 0.09
CUCCUACAUAUUAGCAUUAACA	1.12 ± 0.31
AGUGGGGAACCCUUCCAUGAGG	1.94 ± 0.25
AGACCCUGGUCUGCACUCUAUC	1.82 ± 0.41
ACCAUCGACCGUUGAUUGUACC	1.35 ± 0.22
UGGUGGGCCGCAGAACAUGUGC	1.74 ± 0.035
CAAAUUCGUAUCUAGGGGAAUA	1.57 ± 0.036
CUCAUCUGCAAAGAAGUAAGUG	1.5 ± 0.58
AGUUUUGCAUAGUUGCACUACA	1.37 ± 0.032
UGGCAGUGUAUUGUUAGCUGGU	2.12 ± 0.35
AAUCCUUGGAACCUAGGUGUGAGU	2.15 ± 0.11
